The target of experiment [1] is T1, human recombinant Bcl-2 protein (Homo sapiens, UniProt P10415).
T1 construct: purchased Beijing Yigiao Shenzhou Biotechnology Co., Ltd. 10195-HOSE
The experiment is described as follows: Fluorescence polarization test for inhibition of BCL-2 binding to FITC-BIM. The settings on record: 5 nM BCL-2, 5 nM FITC-BIM, read-out: FP BCL-2 IC50. On the procedure: Fluorescence polarization assay was used to evaluate the effect of the compounds of the present invention on the biological activity of BCL-2.
The effects of the compounds on the biological activity of BCL-2 were evaluated by determining the effects of the compounds on the binding activity of BCL-2 to leukemia pro-apoptotic protein (BIM) using an affinity assay method based on the principle of fluorescence polarization. The reaction buffer comprises the following components: PBS (pH 7.4, 3 mM Na2HPO4, 155 mM NaCl, 1 mM KH2PO4), 1 mM DTT; human recombinant Bcl-2 protein (Item No. 10195-HOSE) (purchased from Beijing Yigiao Shenzhou Biotechnology Co., Ltd.) was diluted to 5 nM with the reaction buffer; FITC-labeled BIM polypeptide (purchased from Nanjing GenScript Biotechnology Co., Ltd.) was diluted to 5 nM with the reaction buffer.
The compounds were dissolved in 100% DMSO and diluted to 0.1, 1, 10 μM, followed by 4-fold serial dilutions with DMSO to a minimum concentration of 0.0061, 0.061, 0.61 nM, each concentration point was further diluted 50-fold with the reaction buffer.
3 μL of solution containing the compound and 12 μL of solution containing BCL-2 were added to the black 384-well assay plate, mixed well, and incubated at room temperature for 15 minutes. Subsequently, 15 μL of FITC-BIM solution was added, and the reaction mixture was incubated at room temperature for 30 minutes in dark place, and then the fluorescence polarization was detected immediately on an Envision multi-mode reader (Perkin Elmer), with 480 nm as the excitation wavelength and 535 nm as the emission wavelength. In this experiment, the group without BCL-2 protein was used as a negative control (100% inhibition), and the group with BCL-2 protein but without the compound was used as a positive control (0% inhibition). The inhibition percentage of the compound to the affinity of BCL-2 can be calculated using the following equation: […]
(§1) The IC50 of the compound was calculated from 8 concentration points using XLfit (ID Business Solutions Ltd., UK) software by the following equation:
(§2) Y=Bottom+(Top−Bottom)/(1+10^((log IC50−X)*slope factor))
(§3) where Y is the inhibition percentage, X is the logarithm of the concentration of the compound to be tested, Bottom is the maximum inhibition percentage, Top is the minimum inhibition percentage, and slope factor is the slope coefficient of the curve.
In general terms: In fluorescence polarisation assays a small probe gives low polarisation when free and higher when bound to something large.

For experiment [2], the target named is T2, human recombinant Bcl-XL protein (Homo sapiens, UniProt Q07817).
T2 construct: purchased Beijing Yiqiao Shenzhou Biotechnology Co., Ltd. 10455-H0SE
The experiment is described as follows: Fluorescence polarization test for inhibition of BCL-XL binding to FITC-BIM. As to conditions: 10 nM BCL-XL, 10 nM FITC-BIM, read-out: FP BCL-XL IC50. On the procedure:
Fluorescence polarization assay was used to evaluate the effect of the compounds of the present invention on the biological activity of BCL-XL.
The effects of the compounds on the biological activity of BCL-XL were evaluated by detecting the effects of the compounds on the binding activity of BCL-XL to BIM using an affinity assay method based on the principle of fluorescence polarization. The reaction buffer contains the following components: PBS (pH 7.4, 3 mM Na2HPO4, 155 mM NaCl, 1 mM KH2PO4), 1 mM DTT; human recombinant Bcl-XL protein (Item No. 10455-H0SE) (purchased from Beijing Yiqiao Shenzhou Biotechnology Co., Ltd.) was diluted to 10 nM with reaction buffer; FITC-labeled BIM polypeptide (purchased from Nanjing GenScript Biotechnology Co., Ltd) was diluted to 10 nM with reaction buffer.
The compounds were dissolved in 100% DMSO and diluted to 1 μM, followed by 4-fold serial dilutions in DMSO to a minimum concentration of 0.061 nM, each concentration point was further diluted 50-fold with reaction buffer.
3 μL of solution containing the compound and 12 μL of solution containing BCL-XL were added to the black 384-well assay plate, mixed well, and incubated at room temperature for 15 minutes. Subsequently, 15 μL of FITC-BIM solution was added, and the reaction mixture was incubated at room temperature for 30 minutes in the dark place, and then the fluorescence polarization was detected immediately on an Envision multi-plate reader (Perkin Elmer), with 480 nm as the excitation wavelength and 535 nm as the emission wavelength. In this experiment, the group without BCL-XL protein was used as a negative control (100% inhibition), and the group with BCL-XL protein but without the compound was added as a positive control (0% inhibition). The inhibition percentage of the compound to the affinity of BCL-XL can be calculated using the following equation: […]
as §1, §2, §3

Experiment [3] deals with RS4;11 cells (acute lymphoblastic leukemia cells). The experiment is described as follows: RS4;11 cell proliferation, CellTilter-Glo luminescence cell viability assay. The class given is cell-based. As to conditions: Homo sapiens, RS4-11; CTG readout after 48 hours. The protocol:
The effects of the compounds of the present invention on the proliferation of RS4;11 cells were evaluated using a luminescence cell viability assay.
A CellTilter-Glo (CTG) Assay Kit is used to detect ATP, a key indicator of the metabolism of living cells, through a unique, highly sensitive and stable luciferase. The luminescent signal generated in the assay is proportional to the number of the viable cells in the medium, therefore the cell proliferation of RS4;11 can be determined.
CellTilter-Glo reagent (Promega, G7572) is composed of CellTilter-Glo lyophilized powder and CellTilter-Glo buffer, and the lyophilized powder can be dissolved in the buffer for use.
RS4;11 cells (ATCC, CRL-1873) were cultured in RPMI1640 complete medium (Thermofisher, 72400-047) containing 10% FBS (GBICO, 10099-141) and 100 units/ml penicillin-streptomycin solution (Thermofisher, 15140122)), when the cells covered 80-90% in the culture vessel, they were digested and dispersed with 0.25% trypsin (containing EDTA) (Thermofisher, 25200056) and then planted in a white 384-well plate (Thermofisher, 164610), and then the 384-well plate was incubated overnight in a 37° C., 5% CO2 incubator. Compounds were dissolved in 100% DMSO and diluted to […], followed by 4-fold serial dilutions with DMSO to a minimum concentration of 0.061 μM, and each concentration point was further diluted 50-fold with FBS-free RPMI1640 medium. If the IC50 of the compound is very low, the initial concentration of the compound can be reduced. After overnight, 3 μL of the compound diluted in the medium was added to each well, and the mixture was gently centrifuged to mix. The group without cells was used as a negative control (100% inhibition), and the group with 0.2% DMSO was used as a positive control (0% inhibition). The 384-well plate was placed in a 37° C., 5% CO2 incubator for further cultivation. After 48 hours, the plate was taken out and equilibrated to room temperature. 15 μl of CTG reagent was added to each well, the plate was shaken gently for 3 minutes to make sure that the cell lysis was carried out thoroughly, then the plate was kept for 10 minutes to stabilize the luminescence signal, then the luminescence signal was read by EnVision (Perkin Elmer).
The inhibition percentage of the compounds to RS4;11 cell proliferation can be calculated using the following equation:
Inhibition Percentage=100−100*(signal compound-signal negative control)/(signal positive control-signal negative control)
as §1
Y=Bottom+(Top−Bottom)/(1+10^((Log IC50−X)*slope factor))
wherein, Y is the inhibition percentage, Bottom is the bottom plateau of the curve (the bottom plateau value of the S-shaped curve), Top is the top plateau of the curve (the top plateau value of the S-shaped curve), and X is the logarithm of the concentration of the compound to be tested.

Bounds are passed on as bounds.

In general, IC50 refers to the concentration that gives 50% inhibition.

T1 sequence (P10415 whole entry): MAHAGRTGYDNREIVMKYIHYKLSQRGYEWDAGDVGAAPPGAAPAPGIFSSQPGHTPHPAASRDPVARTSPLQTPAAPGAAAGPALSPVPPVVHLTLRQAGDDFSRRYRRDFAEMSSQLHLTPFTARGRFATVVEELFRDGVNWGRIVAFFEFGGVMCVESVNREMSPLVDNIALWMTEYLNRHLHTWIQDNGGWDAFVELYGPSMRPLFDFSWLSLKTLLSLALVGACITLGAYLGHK
T2 sequence (Q07817 whole entry): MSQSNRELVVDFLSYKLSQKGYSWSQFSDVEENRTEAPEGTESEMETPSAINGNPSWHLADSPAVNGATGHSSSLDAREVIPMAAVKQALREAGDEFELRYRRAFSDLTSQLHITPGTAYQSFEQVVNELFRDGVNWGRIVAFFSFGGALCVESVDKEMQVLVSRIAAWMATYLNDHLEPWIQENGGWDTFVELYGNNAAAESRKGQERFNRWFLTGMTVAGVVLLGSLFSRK

Take `C[C@@H]1CN(c2ccc(C(=O)NS(=O)(=O)c3ccc(NCC4CCN(C5COC5)CC4)c([N+](=O)[O-])c3)c(Oc3cnc4[nH]ccc4c3)c2)CCN1CC1=C(c2ccc(Cl)cc2)CC(C)(C)CC1` [Example 3, (R)-2-((1H-pyrrolo[2,3-b]pyridin-5-yl)oxy)-4-(4-((4′-chloro-5,5-dimethyl-3,4,5,6-tetrahydro-[1,1′-biphenyl]-2-yl)methyl)-3-methylpiperazin-1-yl)-N-((3--nitro-4(((1-(3-oxetanyl)piperidin-4-yl)methyl)amino)phenyl)sulfonyl) benzamide]: the IC50 in experiment [1] was 3.06 nM; in experiment [2], above 1000 nM; in experiment [3], 6.4 nM.
The matching figures for `C[C@@H]1CN(CC2=C(c3ccc(Cl)cc3)CC(C)(C)CC2)CCN1c1ccc(C(=O)NS(=O)(=O)c2cc(F)c(NC[C@H]3COCCO3)c([N+](=O)[O-])c2)c(Oc2cnc3[nH]ccc3c2)c1` [Example 46]: 1.09 nM, above 1000 nM and 18 nM.
`C[C@@H]1CCC(CN2CCN(c3ccc(C(=O)NS(=O)(=O)c4ccc(NCC5CCOCC5)c([N+](=O)[O-])c4)c(Oc4cnc5[nH]ccc5c4)c3)[C@H](C)C2)=C(c2ccc(Cl)cc2)C1` [Example 23, 2-((1H-pyrrolo[2,3-b]pyridin-5-yl)oxy)-4-((R)-4-(((R)-4′-chloro-5-methyl-3,4,5,6-tetrahydro-[1,1′-biphenyl]-2-yl)methyl)-2-methylpiperazin-1-yl)-N-((3-nitro-4-(((tetrahydro-2H-pyran-4-yl)methyl)amino)phenyl)sulfonyl)benzamide]: the IC50 in experiment [1] is 9.37 nM; in experiment [2], above 1000 nM; in experiment [3] it was 51 nM.
The matching figures for `C[C@H]1CN(c2ccc(C(=O)NS(=O)(=O)c3ccc(NCC4CCOCC4)c([N+](=O)[O-])c3)c(Oc3cnc4[nH]ccc4c3)c2)CCN1CC1=C(c2ccc(Cl)cc2)CC(C)(C)CC1` [Example 50, (S)-2-((1H-pyrrolo[2,3-b]pyridin-5-yl)oxy)-4-(4-((4′-chloro-5,5-dimethyl-3,4,5,6-tetrahydro-[1,1′-biphenyl]-2-yl)methyl)-3-methylpiperazin-1-yl)-N-((3-nitro-4--(((tetrahydro-2H-pyran-4-yl)methyl)amino)phenyl)sulfonyl) benzamide]: above 100 nM, above 1000 nM and above 500 nM.
For `CC1(C)CCC(CN2CCN(c3ccc(C(=O)NS(=O)(=O)c4ccc(NCC5CCOCC5)c([N+](=O)[O-])c4)c(Oc4cnc5[nH]ccc5c4)c3)[C@@H]3CCCC[C@H]32)=C(c2ccc(Cl)cc2)C1` [Example 57], in that order: above 500 nM, above 1000 nM and above 1000 nM.
The matching figures for `C[C@@H]1CN(c2ccc(C(=O)NS(=O)(=O)c3cc(F)c(NC[C@H]4COCCO4)c([N+](=O)[O-])c3)c(Oc3cnc4[nH]ccc4c3)c2)CCN1CC1=C(c2ccc(Cl)cc2)CCC2(CC2)C1` [Example 35, N-((4-((((S)-1,4-dioxan-2-yl)methyl)amino)-3-fluoro-5-nitrophenyl)sulfonyl)-2-((1H-pyrrolo[2,3-b]pyridin-5-yl)oxy)-4-((R)-4-((6-(4-chlorophenyl)spiro[2.5]oct-5-en-5-yl)methyl)-3-methylpiperazin-1-yl)benzamide]: 2.96 nM, above 1000 nM and 17 nM.
For the molecule `C[C@@H]1CN(CC2=C(c3ccc(Cl)cc3)CC(C)(C)CC2)CCN1c1ccc(C(=O)NS(=O)(=O)c2ccc(NCC3CCN(C4COC4)CC3)c([N+](=O)[O-])c2)c(Oc2cnc3[nH]ccc3c2)c1` [Example 9, (R)-2-((1H-pyrrolo[2,3-b]pyridin-5-yl)oxy)-4-(4-((4′-chloro-5,5-dimethyl-3,4,5,6-tetrahydro-[1,1′-biphenyl]-2-yl)methyl)-2-methylpiperazin-1-yl)-N-((3-nitro-4-(((1-(3-oxetan-yl)piperidin-4-yl)methyl)amino)phenyl)sulfonyl) benzamide], the IC50 in experiment [1] was 5.03 nM; in experiment [2], above 1000 nM; in experiment [3] it was 26 nM.
The matching figures for `C[C@@H]1CN(CC2=C(c3ccc(Cl)cc3)CCC(C)(C)C2)CCN1c1ccc(C(=O)NS(=O)(=O)c2cc(F)c(NC[C@H]3COCCO3)c([N+](=O)[O-])c2)c(Oc2cnc3[nH]ccc3c2)c1` [Example 45, N-((4-((((S)-1,4-dioxan-2-yl)methyl)amino)-3-fluoro-5-nitrophenyl)sulfonyl)-2-((1H-pyrrolo[2,3-b]pyridin-5-yl)oxy)-4-((R)-4-((4′-chloro-4,4-dimethyl-3,4,5,6-tetrahydro-[1,1′-biphenyl]-2-yl)methyl)-2-methylpiperazin-1-yl)benzamide]: 4.22 nM, above 1000 nM and 52 nM.
The matching figures for `C[C@@H]1CN(c2ccc(C(=O)NS(=O)(=O)c3cc(F)c(NCC4CCOCC4)c([N+](=O)[O-])c3)c(Oc3cnc4[nH]ccc4c3)c2)CCN1CC1=C(c2ccc(Cl)cc2)CC(C)(C)C2(CC2)C1` [Example 33]: 3.16 nM, above 1000 nM and 16 nM.

Source of the values: US20230271959A1, “HETEROCYCLIC COMPOUND AS BCL-2 INHIBITOR” (Beijing Innocare Pharma Tech Co., Ltd., priority 2020, published 2023).
